In ChEMBL document CHEMBL1208707, “T-type calcium channel blockers: spiro-piperidine azetidines and azetidinones-optimization, design and synthesis” (Bioorg Med Chem Lett, 2010):
The source made the active and inactive calls. No cut-off for these calls is given here.

How the values were obtained:
[1] = molecular target: Transient receptor potential cation channel subfamily V member 1 (Homo sapiens) (UniProt Q8NER1); assay: Inhibition of TRPV1 expressed in HEK293 assessed as capsaicin activation cells at 3.3 ug/mL by FLIPR assay; type: cell-based
[2] = (§1) Protein binding in rat plasma; type: ADME, cell-free; settings: read-out: PPB (converted)
[3] = molecular target: T1, Voltage-dependent T-type calcium channel subunit alpha-1H (Homo sapiens, UniProt O95180); assay: Inhibition of human CaV3.2 expressed in HEK293 cells at -100 mV membrane potential by Ionworks HT assay; type: cell-based
[4] = molecular target: T1, Voltage-dependent T-type calcium channel subunit alpha-1H; assay: Inhibition of human CaV3.2 expressed in HEK293 cells at -100 mV membrane potential by whole cell path clamp method; type: cell-based
Rattus norvegicus [5] = assay: In vivo inhibition of TRPV1 activation in SNL rat at 30 mg/kg, po; type: functional, organism-based; parameters: dose 30 mg/kg
[6] = AUC in po dosed rat; type: ADME, organism-based; settings: plasma
Rattus norvegicus [7] = assay: In vivo inhibition of TRPV1 activation in SNL rat at 10 mg/kg, po; type: functional, organism-based; parameters: dose 10 mg/kg
Rattus norvegicus [8] = assay: Plasma concentration in SNL rat at 100 mg/kg, po; type: ADME, organism-based; parameters: dose 100 mg/kg, route oral; settings: in vivo
Homo sapiens = species on record: Homo sapiens; assay: Protein binding in human plasma; settings: read-out: PPB (converted)
Plasma = assay: as §1; type: ADME, cell-free
Cytochrome P450 3A4 = Cytochrome P450 3A4 (Homo sapiens, UniProt P08684); assay: Inhibition of CYP3A4 coincubated with compound; type: ADME; settings: read-out: INH
Cytochrome P450 2D6 [9] = molecular target: T2, Cytochrome P450 2D6 (Homo sapiens, UniProt P10635); assay: Inhibition of CYP2D6 coincubated with compound; type: ADME
Cytochrome P450 2C9 [10] = molecular target: T3, Cytochrome P450 2C9 (Homo sapiens, UniProt P11712); assay: Inhibition of CYP2C9 coincubated with compound; type: ADME; settings: read-out: INH
Cytochrome P450 2D6 [11] = molecular target: T2, Cytochrome P450 2D6; assay: Inhibition of CYP2D6 preincubated with compound; type: ADME
Cytochrome P450 2C9 [12] = molecular target: T3, Cytochrome P450 2C9; assay: Inhibition of CYP2C9 preincubated with compound; type: ADME; settings: read-out: INH
[13] = Permeability across human Caco-2 cells; type: ADME, cell-based; settings: read-out: permeability

Sequence of Transient receptor potential cation channel subfamily V member 1 (Homo sapiens) (Q8NER1 whole entry): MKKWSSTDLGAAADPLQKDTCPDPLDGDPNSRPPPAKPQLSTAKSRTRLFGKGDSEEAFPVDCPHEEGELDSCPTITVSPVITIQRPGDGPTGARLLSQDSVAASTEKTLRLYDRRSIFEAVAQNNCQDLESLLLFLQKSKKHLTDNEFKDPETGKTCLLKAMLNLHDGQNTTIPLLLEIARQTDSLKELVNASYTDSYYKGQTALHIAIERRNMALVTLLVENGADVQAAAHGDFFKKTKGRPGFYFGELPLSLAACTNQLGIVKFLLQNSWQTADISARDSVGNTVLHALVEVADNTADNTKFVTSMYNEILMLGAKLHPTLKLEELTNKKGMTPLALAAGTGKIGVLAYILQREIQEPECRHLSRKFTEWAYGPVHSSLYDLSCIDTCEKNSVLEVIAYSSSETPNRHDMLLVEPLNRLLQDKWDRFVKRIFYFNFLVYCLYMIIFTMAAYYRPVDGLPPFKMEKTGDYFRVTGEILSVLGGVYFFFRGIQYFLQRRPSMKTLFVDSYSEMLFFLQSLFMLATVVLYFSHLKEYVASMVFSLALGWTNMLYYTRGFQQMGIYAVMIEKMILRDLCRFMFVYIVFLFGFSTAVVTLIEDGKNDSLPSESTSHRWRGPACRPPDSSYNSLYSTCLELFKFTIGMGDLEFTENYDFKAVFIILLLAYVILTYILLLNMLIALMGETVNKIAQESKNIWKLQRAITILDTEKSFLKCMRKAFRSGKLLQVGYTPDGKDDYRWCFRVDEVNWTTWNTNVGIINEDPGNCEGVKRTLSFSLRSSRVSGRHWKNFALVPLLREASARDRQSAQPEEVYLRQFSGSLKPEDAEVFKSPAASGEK
Sequence of Cytochrome P450 3A4 (P08684 whole entry): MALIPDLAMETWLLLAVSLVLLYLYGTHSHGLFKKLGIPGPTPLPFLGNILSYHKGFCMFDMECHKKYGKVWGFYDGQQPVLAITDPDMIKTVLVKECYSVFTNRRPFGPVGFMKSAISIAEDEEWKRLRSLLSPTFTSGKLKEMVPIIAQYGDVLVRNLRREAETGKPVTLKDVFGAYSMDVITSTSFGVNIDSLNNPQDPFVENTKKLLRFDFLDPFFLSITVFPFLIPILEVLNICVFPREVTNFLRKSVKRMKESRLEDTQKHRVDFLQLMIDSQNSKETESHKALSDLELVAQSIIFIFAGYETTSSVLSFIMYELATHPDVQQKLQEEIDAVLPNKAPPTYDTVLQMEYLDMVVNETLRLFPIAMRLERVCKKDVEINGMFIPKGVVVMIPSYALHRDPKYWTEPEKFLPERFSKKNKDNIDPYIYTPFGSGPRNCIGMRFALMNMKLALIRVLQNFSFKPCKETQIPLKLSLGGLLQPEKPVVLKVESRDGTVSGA
T2 sequence (P10635 whole entry): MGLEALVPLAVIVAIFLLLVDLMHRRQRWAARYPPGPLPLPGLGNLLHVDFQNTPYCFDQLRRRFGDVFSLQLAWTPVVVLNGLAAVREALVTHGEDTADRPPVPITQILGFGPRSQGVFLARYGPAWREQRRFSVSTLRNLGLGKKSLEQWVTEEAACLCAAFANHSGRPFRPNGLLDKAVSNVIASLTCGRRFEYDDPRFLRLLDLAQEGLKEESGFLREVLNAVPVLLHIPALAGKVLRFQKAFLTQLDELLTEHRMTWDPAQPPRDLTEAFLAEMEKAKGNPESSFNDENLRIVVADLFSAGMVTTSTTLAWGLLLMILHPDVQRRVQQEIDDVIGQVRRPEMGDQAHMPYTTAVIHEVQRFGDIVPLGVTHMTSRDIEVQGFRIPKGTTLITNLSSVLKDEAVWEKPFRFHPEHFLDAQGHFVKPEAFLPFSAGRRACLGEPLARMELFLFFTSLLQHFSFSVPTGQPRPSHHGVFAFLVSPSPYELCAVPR
T1 sequence (O95180 whole entry): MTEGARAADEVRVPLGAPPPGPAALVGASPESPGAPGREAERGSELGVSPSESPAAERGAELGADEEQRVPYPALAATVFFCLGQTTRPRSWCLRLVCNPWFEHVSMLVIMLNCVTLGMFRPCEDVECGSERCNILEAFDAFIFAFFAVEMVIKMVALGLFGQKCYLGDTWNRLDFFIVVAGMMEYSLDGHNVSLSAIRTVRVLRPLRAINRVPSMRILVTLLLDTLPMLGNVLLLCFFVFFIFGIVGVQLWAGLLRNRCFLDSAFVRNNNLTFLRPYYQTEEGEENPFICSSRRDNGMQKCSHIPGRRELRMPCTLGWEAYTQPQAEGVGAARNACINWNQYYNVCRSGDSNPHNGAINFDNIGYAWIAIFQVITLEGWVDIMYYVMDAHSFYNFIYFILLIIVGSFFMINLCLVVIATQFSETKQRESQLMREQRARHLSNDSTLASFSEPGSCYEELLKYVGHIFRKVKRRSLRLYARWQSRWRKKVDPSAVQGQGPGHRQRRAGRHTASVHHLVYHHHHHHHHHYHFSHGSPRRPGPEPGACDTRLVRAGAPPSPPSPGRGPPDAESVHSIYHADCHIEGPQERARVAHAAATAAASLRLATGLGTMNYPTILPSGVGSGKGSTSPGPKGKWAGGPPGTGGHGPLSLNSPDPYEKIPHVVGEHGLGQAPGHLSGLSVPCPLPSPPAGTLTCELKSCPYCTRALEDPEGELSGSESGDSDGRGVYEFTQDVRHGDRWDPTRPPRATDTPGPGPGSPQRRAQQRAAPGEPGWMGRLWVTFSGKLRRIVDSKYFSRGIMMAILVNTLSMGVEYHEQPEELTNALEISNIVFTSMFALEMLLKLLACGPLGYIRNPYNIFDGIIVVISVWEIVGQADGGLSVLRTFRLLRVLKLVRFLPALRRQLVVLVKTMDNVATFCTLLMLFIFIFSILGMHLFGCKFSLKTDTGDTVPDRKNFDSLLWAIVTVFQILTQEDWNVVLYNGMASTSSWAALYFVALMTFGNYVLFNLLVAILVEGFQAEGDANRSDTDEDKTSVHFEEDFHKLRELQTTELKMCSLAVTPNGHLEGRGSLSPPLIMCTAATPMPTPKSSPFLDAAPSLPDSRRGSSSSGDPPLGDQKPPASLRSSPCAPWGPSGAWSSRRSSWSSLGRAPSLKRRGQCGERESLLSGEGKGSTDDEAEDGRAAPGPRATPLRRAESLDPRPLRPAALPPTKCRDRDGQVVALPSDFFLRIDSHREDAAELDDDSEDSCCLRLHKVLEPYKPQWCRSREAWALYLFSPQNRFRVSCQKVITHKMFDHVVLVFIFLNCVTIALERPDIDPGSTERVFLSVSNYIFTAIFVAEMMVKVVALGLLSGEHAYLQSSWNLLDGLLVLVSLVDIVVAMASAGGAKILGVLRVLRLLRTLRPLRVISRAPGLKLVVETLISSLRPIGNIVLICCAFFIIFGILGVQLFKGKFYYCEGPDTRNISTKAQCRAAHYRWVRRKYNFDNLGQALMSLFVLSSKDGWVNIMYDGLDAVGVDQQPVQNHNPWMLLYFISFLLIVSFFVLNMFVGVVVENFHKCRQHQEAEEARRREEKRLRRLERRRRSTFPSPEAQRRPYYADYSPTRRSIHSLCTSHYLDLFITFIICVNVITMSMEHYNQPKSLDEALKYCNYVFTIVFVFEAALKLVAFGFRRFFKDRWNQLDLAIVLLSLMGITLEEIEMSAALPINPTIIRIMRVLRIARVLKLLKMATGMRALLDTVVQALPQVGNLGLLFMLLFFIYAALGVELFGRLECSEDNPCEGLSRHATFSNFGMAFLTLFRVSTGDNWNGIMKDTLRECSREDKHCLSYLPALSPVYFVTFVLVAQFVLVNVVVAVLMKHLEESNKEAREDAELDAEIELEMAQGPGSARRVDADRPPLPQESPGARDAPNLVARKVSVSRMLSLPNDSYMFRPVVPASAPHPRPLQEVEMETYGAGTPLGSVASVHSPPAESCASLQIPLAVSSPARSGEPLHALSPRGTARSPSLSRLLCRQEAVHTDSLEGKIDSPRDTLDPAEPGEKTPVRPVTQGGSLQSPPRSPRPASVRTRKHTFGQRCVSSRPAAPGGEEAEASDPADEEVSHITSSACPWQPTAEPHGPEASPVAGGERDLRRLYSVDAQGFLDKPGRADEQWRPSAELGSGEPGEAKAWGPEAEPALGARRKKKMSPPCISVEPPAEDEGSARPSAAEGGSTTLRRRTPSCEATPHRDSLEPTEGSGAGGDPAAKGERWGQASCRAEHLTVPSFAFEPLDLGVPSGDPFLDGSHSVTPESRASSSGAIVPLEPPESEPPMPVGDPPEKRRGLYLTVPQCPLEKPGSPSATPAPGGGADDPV
T3 sequence (P11712 whole entry): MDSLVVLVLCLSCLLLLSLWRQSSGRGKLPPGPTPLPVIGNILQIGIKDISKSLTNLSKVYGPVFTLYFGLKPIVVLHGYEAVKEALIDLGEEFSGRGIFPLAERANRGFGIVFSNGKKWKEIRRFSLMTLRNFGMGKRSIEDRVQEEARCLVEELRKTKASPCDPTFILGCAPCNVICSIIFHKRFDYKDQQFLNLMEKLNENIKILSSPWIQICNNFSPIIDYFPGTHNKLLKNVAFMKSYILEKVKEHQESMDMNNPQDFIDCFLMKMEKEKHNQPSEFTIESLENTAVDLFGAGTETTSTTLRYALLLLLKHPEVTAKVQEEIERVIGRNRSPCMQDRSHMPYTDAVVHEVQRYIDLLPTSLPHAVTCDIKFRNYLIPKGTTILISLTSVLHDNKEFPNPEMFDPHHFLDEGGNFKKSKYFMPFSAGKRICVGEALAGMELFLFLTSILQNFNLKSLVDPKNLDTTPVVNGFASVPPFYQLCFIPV

inhibition [1] | IC50 [3] | IC50 [4] | Structure (SMILES) | further results
2.4% |  |  | C[C@H](NC(=O)N1CCC2(CC1)C(=O)N(c1cccc(F)c1)C2c1ccc(Cl)cc1)c1ccc(F)cc1 (some centres not stated) | fraction unbound [2]: 0.001
 | 398 nM |  | O=C(Nc1cc(F)cc(F)c1)N1CCC2(CC1)CN(C1CC1)C2c1ccc(Cl)cc1 (racemic) | fraction unbound [2]: 0.002
3.12% | 800 nM |  | CC[C@H](C)[C@H](NC(=O)N1CCC2(CC1)C(=O)N(C)C2c1ccc(Cl)cc1)C(=O)OC (mixture of isomers) | 
 | 291 nM |  | O=C(Nc1cc(F)cc(F)c1)N1CCC2(CC1)CN(c1ccc(F)c(Cl)c1)C2c1ccccn1 (stereo in doubt; 38b) | fraction unbound [2]: 0.001
 | 855 nM |  | N#Cc1cccc(NC(=O)N2CCC3(CC2)C(=O)N(c2cccc(Cl)c2)C3c2ccccn2)c1 (stereo in doubt; 43b) [listing 1 of 2 here] | fraction unbound [2]: 0.012
37.9% | 44 nM | 63 nM | O=C1N(c2cccc(Cl)c2)C(c2ccccn2)C12CCN(c1nc3cc(F)c(C(F)(F)F)cc3[nH]1)CC2 (configuration not stated) | 
 | 698 nM |  | O=C(Nc1ccc(F)c(F)c1)N1CCC2(CC1)C(=O)N(c1cccc(Cl)c1)C2c1cccc[n+]1[O-] (stereo in doubt; form 1) | fraction unbound [2]: 0.066
25% |  |  | N#Cc1cccc(NC(=O)N2CCC3(CC2)C(=O)N(c2cccc(Cl)c2)C3c2ccccn2)c1 (stereo in doubt; 43b) [listing 2 of 2 here] | inhibition (Rattus norvegicus [5]): inactive
86.2% | 78 nM | 71 nM | O=C1N(c2ccc(F)c(Cl)c2)C(c2ccccn2)C12CCN(c1nc3ccc(Cl)cc3[nH]1)CC2 (configuration not stated) | AUC [6]: 41.2 µM·h
6% | 3330 nM |  | COC(=O)[C@H](CO)NC(=O)N1CCC2(CC1)C(=O)N(c1cccc(F)c1)C2c1ccc(Cl)cc1 (some centres not stated) | 
59.8% |  |  | O=C1N(c2ccc(F)c(Cl)c2)C(c2ccccn2)C12CCN(c1nc3cc(F)c(C(F)(F)F)cc3[nH]1)CC2 (stereo in doubt; 52b) [listing 1 of 2 here] | inhibition (Rattus norvegicus [7]): inactive
13.4% | 256 nM |  | CC[C@H](C)[C@H](NC(=O)N1CCC2(CC1)CN(C(C)C)C2c1ccc(F)cc1)C(=O)OC (mixture of isomers) | 
 | 35 nM | 17000 nM | CC[C@H](C)[C@H](NC(=O)N1CCC2(CC1)C(=O)N(c1cccc(F)c1)C2c1ccc(Cl)cc1)C(=O)OC#N (some centres not stated) | 
 | 4 nM | 42 nM | O=C(Nc1cc(F)cc(F)c1)N1CCC2(CC1)C(=O)N(c1ccc(F)c(Cl)c1)C2c1ccccn1 (stereo in doubt; 39a) | fraction unbound [2]: 0.004; concentration (Rattus norvegicus [8]): 3.4 µM; fraction unbound (Homo sapiens): 0.001
20.7% | 920 nM |  | CN1C(=O)C2(CCN(C(=O)Nc3cc(F)cc(F)c3)CC2)C1c1ccc(Cl)cc1 (racemic) | fraction unbound [2]: 0.034
 |  | 19300 nM | N#Cc1cccc(N2C(=O)C3(CCN(C(=O)Nc4cc(F)cc(F)c4)CC3)C2c2ccccn2)c1 (configuration not stated) | 
 | 652 nM |  | O=C(Nc1ccc(F)c(F)c1)N1CCC2(CC1)C(=O)N(c1cccc(Cl)c1)C2c1ccccn1 (stereo in doubt; 42b) | PPB (Plasma): 99.9%
21.8% | 410 nM |  | CN1CC2(CCN(C(=O)Nc3cc(F)cc(F)c3)CC2)C1c1ccc(F)cc1 (racemic) | fraction unbound [2]: 0.05
8.6% | 60 nM | 84 nM | O=C1N(c2ccc(F)c(Cl)c2)C(c2ccccn2)C12CCN(c1nc3cc(F)c(Cl)cc3[nH]1)CC2 (configuration not stated) | fraction unbound [2]: 0.002
 | 325 nM | 713 nM | CC[C@H](C)[C@H](NC(=O)N1CCC2(CC1)CN(C1CC1)C2c1ccc(Cl)cc1)C(=O)OC (mixture of isomers) | 
25% | 214 nM |  | CN1CC2(CCN(C(=O)Nc3cc(F)cc(F)c3)CC2)C1c1ccc(Cl)cc1 (racemic) | 
53% | 177 nM |  | CC(C)CN1CC2(CCN(C(=O)Nc3cc(F)cc(F)c3)CC2)C1c1ccc(Cl)cc1 (racemic) | 
 | 115 nM | 124 nM | CC[C@H](C)[C@H](NC(=O)N1CCC2(CC1)CN(C(C)C)C2c1ccc(Cl)cc1)C(=O)OC (stereo in doubt; 2a) | 
82.7% |  |  | O=C(Nc1ccc(F)c(F)c1)N1CCC2(CC1)C(=O)N(c1cccc(Cl)c1)C2c1ccccn1 (stereo in doubt; 42a) [listing 1 of 2 here] | inhibition (Rattus norvegicus [5]): inactive
25.2% | 410 nM |  | CC[C@H](C)[C@H](NC(=O)N1CCC2(CC1)CN(C)C2c1ccc(Cl)cc1)C(=O)OC (mixture of isomers) | 

inhibition [1] | IC50 [3] | IC50 [4] | Structure (SMILES) | further results
 | 41 nM | 17700 nM | O=C(Nc1ccc(F)c(F)c1)N1CCC2(CC1)C(=O)N(c1ccc(F)c(Cl)c1)C2c1ccccn1 (stereo in doubt; 40a) | fraction unbound [2]: 0.004
 | 31 nM | 106 nM | O=C1N(c2ccc(F)c(Cl)c2)C(c2ccccn2)C12CCN(c1nc3cc(F)c(C(F)(F)F)cc3[nH]1)CC2 (stereo in doubt; 52b) [listing 2 of 2 here] | 
5.2% | 1250 nM |  | CCC(C)NC(=O)N1CCC2(CC1)C(=O)N(c1cccc(F)c1)C2c1ccc(Cl)cc1 (configuration not stated) | 
92% |  |  | O=C1N(c2ccc(F)c(Cl)c2)C(c2ccccn2)C12CCN(c1nc3cc(F)c(C(F)(F)F)cc3[nH]1)CC2 (stereo in doubt; 52a) [listing 1 of 2 here] | inhibition (Rattus norvegicus [7]): inactive
46.5% | 172 nM | 995 nM | CC(C)N1CC2(CCN(C(=O)Nc3cc(F)cc(F)c3)CC2)C1c1ccc(F)cc1 (racemic) | 
 | 18 nM | 3490 nM | O=C(Nc1cc(F)cc(F)c1)N1CCC2(CC1)C(=O)N(c1cccc(Cl)c1)C2c1ccccn1 (stereo in doubt; 44a) | PPB (Plasma): 98.9%; fraction unbound (Homo sapiens): 0.003
 |  |  | O=C(Nc1ccc(F)c(F)c1)N1CCC2(CC1)C(=O)N(c1cccc(Cl)c1)C2c1ccccn1 (stereo in doubt; 42a) [listing 2 of 2 here] | PPB (Plasma): 98.8%; fraction unbound (Homo sapiens): 0.001
 | 104 nM | 123 nM | CC[C@H](C)[C@H](NC(=O)N1CCC2(CC1)CN(C(C)C)C2c1ccc(Cl)cc1)C(=O)OC (stereo in doubt; 2) | IC50 (Cytochrome P450 3A4): > 30000 nM; INH (Cytochrome P450 2D6 [9]): 0.9 µM; IC50 (Cytochrome P450 2C9 [10]): > 30000 nM; INH (Cytochrome P450 2D6 [11]): 8.1 µM; IC50 (Cytochrome P450 2C9 [12]): > 30000 nM; Papp [13]: 13.4 ×10⁻⁶ cm/s
 | 60 nM | 41 nM | O=C(Nc1cc(F)cc(F)c1)N1CCC2(CC1)CN(c1ccc(F)c(Cl)c1)C2c1ccccn1 (stereo in doubt; 38a) | PPB (Plasma): 99.9%
 | 200 nM |  | O=C(Nc1cc(F)cc(F)c1)N1CCC2(CC1)C(=O)N(c1cccc(Cl)c1)C2c1ccccn1 (stereo in doubt; 44b) | PPB (Plasma): 99.5%
 | 57 nM |  | N#Cc1cccc(NC(=O)N2CCC3(CC2)C(=O)N(c2cccc(Cl)c2)C3c2ccccn2)c1 (stereo in doubt; 43a) | PPB (Plasma): 99.2%; fraction unbound (Homo sapiens): 0.013
8.5% |  |  | CC[C@H](C)[C@H](NC(=O)N1CCC2(CC1)CN(c1cccc(F)c1)C2c1ccc(Cl)cc1)C(=O)OC (stereo in doubt; 22a) | 
39% |  |  | O=C(Nc1ccc(F)c(F)c1)N1CCC2(CC1)C(=O)N(c1ccc(F)c(Cl)c1)C2c1ccccn1 (stereo in doubt; 40b) | 
4.4% |  |  | COC(=O)[C@H](COC(C)(C)C)NC(=O)N1CCC2(CC1)C(=O)N(c1cccc(F)c1)C2c1ccc(Cl)cc1 (some centres not stated) | 
19.1% | 138 nM | 328 nM | CC(C)N1CC2(CCN(C(=O)Nc3cc(F)cc(F)c3)CC2)C1c1ccc(Cl)cc1 (configuration not stated) | IC50 (Cytochrome P450 3A4): > 30000 nM; INH (Cytochrome P450 2D6 [9]): 0.9 µM; IC50 (Cytochrome P450 2C9 [10]): > 30000 nM; INH (Cytochrome P450 2D6 [11]): 3.6 µM; IC50 (Cytochrome P450 2C9 [12]): > 30000 nM; Papp [13]: > 7.34 ×10⁻⁶ cm/s
 | 29 nM |  | O=C1N(c2ccc(F)c(Cl)c2)C(c2ccccn2)C12CCN(c1nc3cc(F)c(C(F)(F)F)cc3[nH]1)CC2 (stereo in doubt; 52a) [listing 2 of 2 here] | AUC [6]: 0.814 µM·h; concentration (Rattus norvegicus [8]): 3.4 µM
12.7% |  |  | N#Cc1cccc(NC(=O)N2CCC3(CC2)C(=O)N(c2cccc(F)c2)C3c2ccc(Cl)cc2)c1 (stereo in doubt; 37b) | 
19.3% |  |  | O=C(Nc1cc(F)cc(F)c1)N1CCC2(CC1)C(=O)N(c1cccc(F)c1)C2c1ccc(Cl)cc1 (stereo in doubt; 36a) | 
34.2% | 2260 nM |  | O=C(Nc1cc(F)cc(F)c1)N1CCC2(CC1)C(=O)N(C1CC1)C2c1ccc(Cl)cc1 (racemic) | 
 |  |  | O=C(Nc1cccc(C(F)(F)F)c1)N1CCC2(CC1)C(=O)N(c1ccc(F)c(F)c1)C2c1ccccn1 (stereo in doubt; 41a) | inhibition (Rattus norvegicus [5]): inactive
 | 45 nM | 109 nM | CC[C@H](C)[C@H](NC(=O)N1CCC2(CC1)C(=O)N(c1cccc(F)c1)C2c1ccc(Cl)cc1)C(=O)OC (stereo in doubt; 23a) | 
6.79% |  |  | O=C(Nc1cc(F)cc(F)c1)N1CCC2(CC1)C(=O)N(c1cccc(F)c1)C2c1ccc(Cl)cc1 (stereo in doubt; 36b) | 
 | 733 nM | 3200 nM | CC[C@H](C)[C@H](NC(=O)N1CCC2(CC1)CN(C(C)C)C2c1ccc(Cl)cc1)C(=O)OC (stereo in doubt; 2b) | 
64% | 174 nM | 340 nM | CC(C)N1CC2(CCN(C(=O)Nc3ccc(F)c(F)c3)CC2)C1c1ccc(Cl)cc1 (configuration not stated) | IC50 (Cytochrome P450 3A4): > 30000 nM; INH (Cytochrome P450 2D6 [9]): 0.9 µM; IC50 (Cytochrome P450 2C9 [10]): > 30000 nM; INH (Cytochrome P450 2D6 [11]): 8.1 µM; IC50 (Cytochrome P450 2C9 [12]): > 30000 nM; Papp [13]: 18.7 ×10⁻⁶ cm/s
